Experimental data as given in article PMC6479946 (Molecules, 2019).

Legend:
in vivo = settings: rat plasma, n = 8, mean ± SD; for AUC(0-t) / AUC(0-inf) / CL/F / Cmax / k el / MRT / Tmax: male, Sprague-Dawley, rat, in vivo, po; for AUC(0-t): AUC(0-t) of HAR; for AUC(0-inf): AUC(0-∞) of HAR; for CL/F: CL/F of HAR; for Cmax: Cmax of HAR; for k el: Ke of HAR; for MRT: MRT of HAR; for Tmax: Tmax of HAR
Experimental: The analytes were separated on an ACQUITY UPLC BEH C18 column (2.1 mm × 50 mm, 1.7 μm, Waters, Milford, USA). […] The flow rate was 0.3 mL/min. The column and sample-tray temperature were kept at 40 °C and 4 °C, respectively. The injection volume was 5.0 μL using a partial loop with needle over fill mode.
The compound dependent parameters used for analysis were summarized in Supplementary materials Table S1.
A rapid and convenient precipitation method was used to prepare the plasma samples. A 100 μL aliquot of plasma sample was spiked with 100 μL of IS solution and 300 μL of methanol in a 1.5 mL centrifuge tube; subsequently, the mixtures were vortex-mixed for 30.0 s and then centrifuged at 1.5 × 10^4× g for 10 min at 4 °C. A 100 μL aliquot of supernatant was combined with 25.0 μL of 0.1% formic acid water in a clean centrifuge tube and then vortex-mixed for 30 s. A 5.0 μL aliquot of mixture was injected into the UPLC-MS/MS system for analysis.
Fifty-six pathogen-free male adult rats were randomly divided into seven groups with eight rats in each group for pharmacokinetic study. […] One group was intragastrically administered with MEM hydrochloride 5.0 mg/kg dissolved in ultrapure water, namely, MEM group. […] The blood samples were immediately centrifuged at 4.0 × 10^3× g at […] for 10 min, and 100 μL of the supernatant plasma was transferred into another new 1.5 mL centrifuge tube and stored at −20 °C until UPLC-MS/MS analysis.
All standard curves and quantitative data were processed by Agilent Mass Hunter Quantitative Analysis Workstation Software. […] All the pharmacokinetic parameters were processed using the non-compartmental pharmacokinetics data analysis software program PK solutions 2.0^TM (Summit Research Services, USA). […] The AUC(0-t) was obtained by the linear/logarithmic trapezoidal rule, and the area under the plasma concentration versus time curve from zero to infinity (AUC(0-∞)) was calculated by means of the trapezoidal rule with extrapolation to infinity with a terminal elimination rate constant. The Pearson correlation coefficient analysis was processed by IBM SPSS Statistics Version 21. A statistical analysis was performed using analysis of variance with α = 0.05 as the minimal level of significance.

[1] = oral administration of 40.0 mg/kg HAR; cited from earlier work
[2] = 20 mg/kg, oral HAR 20.0 mg/kg + MEM 5.0 mg/kg (HAR-L + MEM)
[3] = 20 mg/kg, oral HAR 20.0 mg/kg alone (HAR-L)
[4] = 40 mg/kg, oral HAR 40.0 mg/kg + MEM 5.0 mg/kg (HAR-M + MEM)
[5] = 40 mg/kg, oral HAR 40.0 mg/kg alone (HAR-M)
[6] = 80 mg/kg, oral HAR 80.0 mg/kg + MEM 5.0 mg/kg (HAR-H + MEM)
[7] = 80 mg/kg, oral HAR 80.0 mg/kg alone (HAR-H)
[8] = oral HAR 20.0 mg/kg + MEM 5.0 mg/kg (HAR-L + MEM)
[9] = oral HAR 20.0 mg/kg alone (HAR-L)
[10] = oral HAR 40.0 mg/kg + MEM 5.0 mg/kg (HAR-M + MEM)
[11] = oral HAR 40.0 mg/kg alone (HAR-M)
[12] = oral HAR 80.0 mg/kg + MEM 5.0 mg/kg (HAR-H + MEM)
[13] = oral HAR 80.0 mg/kg alone (HAR-H)

COc1ccc2c(c1)[nH]c1c(C)nccc12 [HAR, 7-methoxy-1-methyl-9H-pyrido [3,4-β] indole]
AUC(0-t) (in vivo; [2]): 141 ± 56.7 ng·h/mL | AUC(0-t) (in vivo; [3]): 74.9 ± 36.3 ng·h/mL | AUC(0-inf) (in vivo; [2]): 158 ± 65.4 ng·h/mL | AUC(0-inf) (in vivo; [3]): 83.1 ± 38.9 ng·h/mL | CL/F (in vivo; [2]): 158 L/h/kg | CL/F (in vivo; [3]): 323 L/h/kg | Cmax (in vivo; [2]): 64.5 ± 14.7 ng/mL | Cmax (in vivo; [3]): 31.4 ± 16.3 ng/mL | k el (in vivo; [2]): 8.67e-05 s⁻¹ | k el (in vivo; [3]): 0.000119 s⁻¹ | MRT (in vivo; [2]): 4.02 ± 1.96 h | MRT (in vivo; [3]): 3.36 ± 1.38 h | Tmax (in vivo; [2]): 0.5 ± 0.267 h | Tmax (in vivo; [3]): 0.5 ± 0.267 h | AUC(0-t) (in vivo; [4]): 139 ± 40.6 ng·h/mL | AUC(0-t) (in vivo; [5]): 100 ± 44.8 ng·h/mL | AUC(0-inf) (in vivo; [4]): 153 ± 43.1 ng·h/mL | AUC(0-inf) (in vivo; [5]): 109 ± 47.9 ng·h/mL | CL/F (in vivo; [4]): 278 L/h/kg | CL/F (in vivo; [5]): 431 L/h/kg | Cmax (in vivo; [4]): 86.6 ± 31 ng/mL | Cmax (in vivo; [5]): 77 ± 53.8 ng/mL | k el (in vivo; [4]): 4.83e-05 s⁻¹ | k el (in vivo; [5]): 0.000132 s⁻¹ | MRT (in vivo; [4]): 3.28 ± 1.02 h | MRT (in vivo; [5]): 2.83 ± 1.41 h | Tmax (in vivo; [4]): 0.24 ± 0.129 h | Tmax (in vivo; [5]): 0.365 ± 0.271 h | AUC(0-t) (in vivo; [6]): 1060 ± 540 ng·h/mL | AUC(0-t) (in vivo; [7]): 502 ± 180 ng·h/mL | AUC(0-inf) (in vivo; [6]): 1110 ± 508 ng·h/mL | AUC(0-inf) (in vivo; [7]): 587 ± 275 ng·h/mL | CL/F (in vivo; [6]): 91.2 L/h/kg | CL/F (in vivo; [7]): 163 L/h/kg | Cmax (in vivo; [6]): 755 ± 298 ng/mL | Cmax (in vivo; [7]): 368 ± 253 ng/mL | k el (in vivo; [6]): 0.000127 s⁻¹ | k el (in vivo; [7]): 0.000116 s⁻¹ | MRT (in vivo; [6]): 2.88 ± 1.93 h | MRT (in vivo; [7]): 3.17 ± 1.48 h | Tmax (in vivo; [6]): 0.448 ± 0.63 h | Tmax (in vivo; [7]): 0.344 ± 0.186 h | Ka of HAR (in vivo; [8]): 1.91 ± 2.46 h⁻¹ | T1/2a of HAR (in vivo; [8]): 1.57 ± 2.28 h | T1/2e of HAR (in vivo; [8]): 2.89 ± 2.26 h | T1/2d of HAR (in vivo; [8]): 1.22 ± 1.24 h | Vd of HAR (in vivo; [8]): 59.0 ± 35.1 (L/kg) × 10 | Ka of HAR (in vivo; [9]): 1.66 ± 2.27 h⁻¹ | T1/2a of HAR (in vivo; [9]): 1.29 ± 1.25 h | T1/2e of HAR (in vivo; [9]): 2.05 ± 1.11 h | T1/2d of HAR (in vivo; [9]): 2.14 ± 2.57 h | Vd of HAR (in vivo; [9]): 80.3 ± 39.2 (L/kg) × 10 | Ka of HAR (in vivo; [10]): 1.52 ± 1.08 h⁻¹ | T1/2a of HAR (in vivo; [10]): 1.18 ± 1.22 h | T1/2e of HAR (in vivo; [10]): 4.33 ± 1.31 h | T1/2d of HAR (in vivo; [10]): 2.33 ± 2.71 h | Vd of HAR (in vivo; [10]): 172 ± 61.6 (L/kg) × 10 | Ka of HAR (in vivo; [11]): 2.69 ± 2.60 h⁻¹ | T1/2a of HAR (in vivo; [11]): 0.529 ± 0.478 h | T1/2e of HAR (in vivo; [11]): 2.28 ± 1.86 h | T1/2d of HAR (in vivo; [11]): 0.960 ± 0.734 h | Vd of HAR (in vivo; [11]): 136 ± 105 (L/kg) × 10 | Ka of HAR (in vivo; [12]): 2.93 ± 2.06 h⁻¹ | T1/2a of HAR (in vivo; [12]): 0.357 ± 0.228 h | T1/2e of HAR (in vivo; [12]): 3.21 ± 3.17 h | T1/2d of HAR (in vivo; [12]): 1.40 ± 1.74 h | Vd of HAR (in vivo; [12]): 60.3 ± 89.6 (L/kg) × 10 | Ka of HAR (in vivo; [13]): 2.80 ± 2.74 h⁻¹ | T1/2a of HAR (in vivo; [13]): 0.605 ± 0.546 h | T1/2e of HAR (in vivo; [13]): 2.35 ± 1.44 h | T1/2d of HAR (in vivo; [13]): 1.36 ± 1.37 h | Vd of HAR (in vivo; [13]): 51.4 ± 33.1 (L/kg) × 10 | maximum peak concentration (Cmax) of HAR [1]: 67.1 ± 34.3 ng/mL
